Common to all, as to details: human
Series [1] has as its system Hepatotoxicity. The experiment in a line: FDA HLAED, liver enzyme composite activity.
For series [2], the system named is Hepatotoxicity. The experiment in a line: FDA HLAED, alkaline phosphatase increase.
For series [3], the system named is Hepatotoxicity. The series can be described thus: FDA HLAED, serum glutamic oxaloacetic transaminase (SGOT) increase.
Series [4] concerns Hepatotoxicity. The series can be described thus: FDA HLAED, serum glutamic pyruvic transaminase (SGPT) increase.
Series [5] has as its system Hepatotoxicity. The experiment in a line: FDA HLAED, lactate dehydrogenase (LDH) increase.
The subject of series [6] is Hepatotoxicity. The series can be described thus: FDA HLAED, gamma-glutamyl transferase (GGT) increase.

Structures are written as SMILES.
Wherever GGT Increase - Index Value is given: reference of the scale not given here.
Wherever LDH Increase - Index Value is given: reference of the scale not given here.

`N=C(N)NC(=O)Cc1c(Cl)cccc1Cl` [GUANFACINE]: in series [1], the “Composite Activity - Active” value is listed as 0, the “Composite Activity - Marginal” value was found to be 0 and the “Composite Activity - Score” value is on record as “Inactive”. Also, in series [2], the “Alkaline Phosphatase Increase - Activity Score” value is recorded as “Inactive”, the “Alkaline Phosphatase Increase - Index Value” is recorded as 1 and the “Alkaline Phosphatase Increase - Number of Reports” value is below 4. Further, in series [3], the “SGOT Increase - Activity Score” value is listed as “Inactive”, the “SGOT Increase - Index Value” worked out at 1.3 and the “SGOT Increase - Number of Reports” value is recorded as “>= 4”. Further, in series [4], the “SGPT Increase - Activity Score” value is “Inactive”, the “SGPT Increase - Index Value” was determined as 0.3 and the “SGPT Increase - Number of Reports” value is below 4. For the same molecule, in series [5], the “LDH Increase - Activity Score” value is on record as “Inactive”, the “LDH Increase - Index Value” was found to be 0.6 and the “LDH Increase - Number of Reports” value was below 4. Further, in series [6], the “GGT Increase - Activity Score” value is “Inactive”, the “GGT Increase - Index Value” came to 0 and the “GGT Increase - Number of Reports” value is on record as below 4.
In the case of `O=C1CN=C(c2ccccc2)c2cc(Cl)ccc2N1CC(F)(F)F` [HALAZEPAM], in series [1], the “Composite Activity - Active” value amounted to 0, the “Composite Activity - Marginal” value was determined as 0 and the “Composite Activity - Score” value is on record as “Inactive”. For the same molecule, in series [2], the “Alkaline Phosphatase Increase - Activity Score” value is on record as “Inactive”, the “Alkaline Phosphatase Increase - Index Value” came to 0 and the “Alkaline Phosphatase Increase - Number of Reports” value is recorded as below 4. For the same molecule, in series [3], the “SGOT Increase - Activity Score” value is given as “Inactive”, the “SGOT Increase - Index Value” came to 0 and the “SGOT Increase - Number of Reports” value is below 4. In series [4], the “SGPT Increase - Activity Score” value is “Inactive”, the “SGPT Increase - Index Value” is given as 0 and the “SGPT Increase - Number of Reports” value is on record as below 4. In series [5], the “LDH Increase - Activity Score” value was “Inactive”, the “LDH Increase - Index Value” worked out at 0 and the “LDH Increase - Number of Reports” value is below 4. Besides, in series [6], the “GGT Increase - Activity Score” value is “Inactive”, the “GGT Increase - Index Value” is 0 and the “GGT Increase - Number of Reports” value was below 4.
In the case of `C[C@H]1C[C@H]2[C@@H]3C[C@H](F)C4=CC(=O)C=C[C@]4(C)[C@@]3(F)[C@@H](O)C[C@]2(C)[C@@]1(O)C(=O)CCl` [HALOBETASOL], in series [1], the “Composite Activity - Active” value was 0, the “Composite Activity - Marginal” value was determined as 0 and the “Composite Activity - Score” value is “Inactive”. Further, in series [2], the “Alkaline Phosphatase Increase - Activity Score” value is recorded as “Inactive”, the “Alkaline Phosphatase Increase - Index Value” came out at 0 and the “Alkaline Phosphatase Increase - Number of Reports” value is listed as below 4. In series [3], the “SGOT Increase - Activity Score” value was “Inactive”, the “SGOT Increase - Index Value” was determined as 0 and the “SGOT Increase - Number of Reports” value is given as below 4. In series [4], the “SGPT Increase - Activity Score” value is given as “Inactive”, the “SGPT Increase - Index Value” stood at 0 and the “SGPT Increase - Number of Reports” value is below 4. Besides, in series [5], the “LDH Increase - Activity Score” value is “Inactive”, the “LDH Increase - Index Value” is listed as 0 and the “LDH Increase - Number of Reports” value is reported as below 4. Also, in series [6], the “GGT Increase - Activity Score” value is “Inactive”, the “GGT Increase - Index Value” is on record as 0 and the “GGT Increase - Number of Reports” value is listed as below 4.

The values are drawn from ChEMBL document CHEMBL1697781, “Assessment of the health effects of chemicals in humans: II. Construction of an adverse effects database for QSAR modeling” (Curr Drug Discov Technol, 2004).
